# Columns and labels:
# Assay in all cases: relative viability (nuclei count vs DMSO), 5 days (fraction); higher = more cells survive
# [1] = compound: C[C@@H](N)c1ccc(C(=O)Nc2ccnc3[nH]ccc23)cc1 + Cc1nc(NC(=O)N2CCC[C@H]2C(N)=O)sc1-c1ccnc(C(C)(C)C(F)(F)F)c1 [Alpelisib] (partner 2 µM)
# In short: (§1)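 Relative viability was taken as the ratio of nuclei in treated wells to nuclei in vehicle wells. Lung cancer cell lines in 1536-well plates received compounds by pin tool one day after seeding, either one drug alone or a fixed anchor-drug dose plus five library-drug doses (not always all listed) in √10 steps. Nuclei were counted on 4× images after 5 days of treatment, and values are medians of duplicate plates.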
# [2] = compound: C[C@@H](N)c1ccc(C(=O)Nc2ccnc3[nH]ccc23)cc1 + Nc1ncn([C@H]2C[C@H](O)[C@@H](CO)O2)c(=O)n1 [Decitabine] (partner 2 µM)
# In short: as §1
# [3] = compound: O[C@H]1CC[C@H](Nc2ncc3nc(Nc4c(F)cc(F)cc4F)n([C@H]4CCOC4)c3n2)CC1 [Tanzisertib] + CC(=O)c1c(C)c2cnc(Nc3ccc(N4CCNCC4)cn3)nc2n(C2CCCC2)c1=O [Palbociclib] (partner 0.5 µM)
# In short: as §1
# [4] = compound: O[C@H]1CC[C@H](Nc2ncc3nc(Nc4c(F)cc(F)cc4F)n([C@H]4CCOC4)c3n2)CC1 [Tanzisertib] + O=C(CCCCCCC(=O)Nc1ccccc1)NO [Vorinostat] (partner 1 µM)
# In short: as §1
Cell Line,relative viability ([1]; first compound 0.04 µM),relative viability ([1]; first compound 0.1265 µM),relative viability ([1]; first compound 0.4 µM),relative viability ([1]; first compound 1.265 µM),relative viability ([1]; first compound 4 µM),relative viability ([2]; first compound 0.04 µM),relative viability ([2]; first compound 0.1265 µM),relative viability ([2]; first compound 0.4 µM),relative viability ([2]; first compound 1.265 µM),relative viability ([2]; first compound 4 µM),relative viability ([3]; first compound 0.08 µM),relative viability ([3]; first compound 0.253 µM),relative viability ([3]; first compound 0.8 µM),relative viability ([3]; first compound 2.53 µM),relative viability ([3]; first compound 8 µM),relative viability ([4]; first compound 0.08 µM),relative viability ([4]; first compound 0.253 µM),relative viability ([4]; first compound 0.8 µM),relative viability ([4]; first compound 2.53 µM),relative viability ([4]; first compound 8 µM)
NCI-H2347,1.02,0.976,1.2,1.05,0.845,0.657,0.594,0.623,0.566,0.54,0.466,0.457,0.452,0.444,0.435,0.744,0.628,0.696,0.588,0.463
201T,1.06,1.01,1.01,1.06,1.24,0.846,0.853,0.851,0.979,0.941,0.369,0.375,0.35,0.342,0.334,1.03,1.01,0.996,0.988,0.764
PC-14,0.925,0.932,1.02,1.02,0.811,0.24,0.217,0.277,0.258,0.188,0.681,0.533,0.589,0.532,0.208,0.75,0.735,0.701,0.627,0.357
NCI-H727,0.572,0.809,0.41,0.937,0.786,1,1.03,0.942,0.764,0.908,0.74,0.673,0.614,0.676,0.626,1.18,1.26,1.25,1.04,1.12
COR-L23,0.699,0.788,0.921,0.801,0.381,0.385,0.441,0.421,0.393,0.305,0.325,0.331,0.336,0.275,0.298,0.438,0.504,0.479,0.494,0.537
HOP-62,0.761,0.825,0.793,0.705,0.805,0.21,0.225,0.241,0.206,0.207,0.411,0.451,0.464,0.491,0.525,0.632,0.599,0.679,0.768,0.605
NCI-H1915,1.12,1.06,1.06,,0.873,,0.265,0.242,,0.235,0.58,0.514,0.55,0.506,0.476,0.569,0.535,0.46,0.503,0.487
BEN,1.07,0.995,1.09,1.25,0.731,0.53,0.732,0.822,0.757,0.568,0.448,0.532,0.502,0.492,0.509,0.593,0.583,0.613,0.588,0.611
NCI-H1437,0.899,0.935,0.945,0.934,0.764,0.526,0.572,0.541,0.602,0.591,0.333,0.291,0.315,0.32,0.262,0.876,0.896,0.88,0.895,0.97
EMC-BAC-2,0.772,0.723,0.696,0.74,0.54,1,0.968,1.11,1.04,0.903,0.537,0.513,0.463,0.509,0.495,0.46,0.849,0.464,0.5,0.217
NCI-H647,1.32,1.08,0.962,0.96,0.928,0.314,0.324,0.419,0.521,0.335,0.364,0.506,0.381,0.427,0.439,0.486,0.569,0.549,0.661,1.1
LXF-289,1.12,1.04,1.04,1.07,0.85,0.406,0.362,0.362,0.373,0.331,0.596,0.592,0.647,0.574,0.65,0.835,0.766,0.88,0.818,0.767
LOU-NH91,0.684,0.764,0.671,0.609,0.613,0.755,0.79,0.78,0.69,0.577,0.584,0.558,0.532,0.556,0.414,0.948,0.924,1,0.974,0.418
NCI-H23,0.802,0.766,0.883,,0.608,0.296,0.295,0.363,,0.301,0.479,0.53,0.512,0.493,0.514,0.542,0.596,0.498,0.49,0.474
NCI-H1993,0.693,0.694,,0.718,0.685,0.649,0.603,,0.636,0.69,0.652,0.531,0.611,0.617,0.595,0.901,0.928,1.1,0.769,0.77
HCC-827,0.982,1.09,1.04,1.03,0.895,,0.33,0.379,0.227,0.331,0.533,0.468,0.475,0.429,0.24,0.747,0.871,0.725,0.853,0.357
NCI-H650,1.19,1.15,1.06,,0.841,,0.3,0.369,,0.3,0.341,0.342,0.302,0.33,0.325,0.404,0.421,0.432,0.45,0.282

Cell Line,relative viability ([1]; first compound 0.04 µM),relative viability ([1]; first compound 0.1265 µM),relative viability ([1]; first compound 0.4 µM),relative viability ([1]; first compound 1.265 µM),relative viability ([1]; first compound 4 µM),relative viability ([2]; first compound 0.04 µM),relative viability ([2]; first compound 0.1265 µM),relative viability ([2]; first compound 0.4 µM),relative viability ([2]; first compound 1.265 µM),relative viability ([2]; first compound 4 µM),relative viability ([3]; first compound 0.08 µM),relative viability ([3]; first compound 0.253 µM),relative viability ([3]; first compound 0.8 µM),relative viability ([3]; first compound 2.53 µM),relative viability ([3]; first compound 8 µM),relative viability ([4]; first compound 0.08 µM),relative viability ([4]; first compound 0.253 µM),relative viability ([4]; first compound 0.8 µM),relative viability ([4]; first compound 2.53 µM),relative viability ([4]; first compound 8 µM)
NCI-H838,0.909,0.884,0.773,0.571,0.344,0.482,0.47,0.466,0.415,0.3,0.233,0.225,0.219,0.228,0.198,0.745,0.73,0.733,0.676,0.651
RERF-LC-KJ,0.899,0.939,0.809,0.945,0.851,0.762,0.764,0.75,0.806,0.634,1.12,1.01,1.25,1.05,1.05,0.779,0.712,0.743,0.573,0.56
NCI-H661,0.77,1.05,0.914,0.157,0.634,0.51,0.59,0.573,0.493,0.504,0.424,0.406,0.423,0.386,0.415,0.799,0.724,0.798,0.859,0.797
HCC-366,0.41,0.398,0.581,,0.329,0.323,0.331,0.353,0.405,0.343,,0.395,0.424,0.368,0.384,,0.361,0.386,0.428,0.309
SK-LU-1,1.03,0.973,0.986,0.888,0.704,0.587,0.654,0.585,0.516,0.472,0.455,0.388,0.37,0.384,0.389,0.848,0.824,0.734,0.9,0.828
HCC-44,0.886,0.736,0.91,0.847,0.588,0.862,0.981,0.971,0.893,0.92,1.02,1.03,0.94,0.955,1.1,1.22,1.16,1.19,1.19,1.25
A-427,1.12,1.13,1.08,,1.07,0.499,0.564,0.549,0.517,0.545,0.565,0.538,0.52,0.507,0.511,0.897,0.833,0.874,0.884,0.77
SW 1573,0.852,0.984,0.832,0.563,0.509,0.569,0.577,0.567,0.497,0.301,0.444,0.455,0.333,0.456,0.316,1.21,0.666,0.72,1.04,0.566
NCI-H322M,0.909,0.838,0.935,,0.969,0.744,0.833,0.906,0.809,0.876,0.475,0.459,0.475,0.472,0.534,0.863,0.961,0.875,0.912,0.75
ABC-1,1.22,1.04,1.37,1.58,0.809,1.2,0.895,1.13,1.46,1.46,0.927,0.597,0.946,0.818,0.824,1.22,1.58,1.15,1.1,0.786
LK-2,1.3,1.02,1.17,,0.83,0.351,0.287,0.359,0.237,0.352,0.526,0.618,0.798,0.659,0.749,0.365,0.356,0.282,0.25,0.278
NCI-H2023,0.684,0.681,0.836,0.681,0.608,0.252,0.243,0.245,0.222,0.159,0.335,0.406,0.406,0.325,0.328,0.826,0.502,0.803,0.555,0.625
SK-MES-1,1,0.986,1.01,0.786,0.834,0.341,0.309,0.32,0.322,0.314,0.327,0.314,0.345,0.298,0.281,1.27,1.1,1.04,1.07,0.78
NCI-H1793,0.853,0.672,0.704,,0.833,0.506,0.556,0.547,,0.463,0.306,0.326,0.347,0.293,0.303,0.787,0.789,0.748,0.641,0.551
NCI-H2405,,0.783,0.536,0.413,0.217,,0.801,0.695,0.448,0.248,0.508,0.502,0.55,0.546,0.47,1.04,1.19,1.14,1.17,0.404
LCLC-103H,1.15,0.956,1.03,0.94,0.828,0.652,0.69,0.724,0.716,0.652,0.519,0.466,0.486,0.456,0.465,0.896,0.773,0.801,0.783,0.653

# — the supplement of paper PMC10307832
